Source: patent US9212396B2, “Materials and methods useful for affecting tumor cell growth, migration and invasion” (The Ohio State University, priority 2009, dated 2015)

Assays:
Format in all cases: cell-based, human
Calu-1 cells [1] = assay: Caspase 3/7 assay of TRAIL-induced apoptosis in Calu-1 cells; conditions: Calu-1 cells transfected 72 h, control 2′-O-me-scrambled miR
Protocol: (§1) Cells were grown in six well plate (1.7×10^6 per well) for 24 h and transfected 100 nmoli/L/well of 2′-O-me-oligoribonucleotides using lipofectamine 2000. RNA and proteins were extracted after 72 h from the transfection.
(§2) Cells were plated in 96-well plates in triplicate and incubated at 37° C. in a 5% CO2 incubator. Super-Killer TRAIL (Alexis Biochemicals) was used for 24-48 h at 400 ng ml-1. Cell viability was examined with 3-(4,5-dimethylthiazol-2-yl)-2,5-dipheniltetrazolium bromide (MTT)-Cell Titer 96 AQueous One Solution Cell Proliferation Assay (Promega), according to the manufacturer's protocol. Metabolically active cells were detected by adding 20 μl of MTT to each well. After 1 h of incubation, the plates were analyzed in a Multilabel Counter (Bio-Rad Laboratories). Apoptosis was assessed using Annexin V-FITC apoptosis detection kits followed by flowcytometric analysis and caspase 3/7 activity. […] Statistical analysis was done using two sample t test, assuming equal variance, and P value was calculated based on two-tailed test. For detection of caspase 3/7 activity, cells were cultured in 96-well plates and treated with TRAIL 400 ng/ml and analyzed using Caspase-Glo 3/7 Assay kit (Promega) according to the manufacturer's instructions. Continuous variables are expressed as mean values±standard deviation (s.d.).

Snu-387 cells [2] = assay: Caspase 3/7 assay of TRAIL-induced apoptosis in Snu-387 cells; conditions: Snu-387 cells transfected 72 h, control 2′-O-me-scrambled miR
Protocol: as §1, §2

PTEN and TIMP3 [3] = assay: Western blot of PTEN and TIMP3 in Calu-1 cells; conditions: Calu-1 cells after transfection
Protocol: (§3) Total proteins from NSCLC and HCC cells were extracted with radioimmuno-precipitation assay (RIPA) buffer ([…] NaCl, […] Tris-HCl, pH 7.5, 1% Triton, 0.1% SDS, 0.1% sodium deoxycholate and 1% Nonidet P40). Sample extract (50 μg) was resolved on 7.5-12% SDS-polyacrylamide gels (PAGE) using a mini-gel apparatus (Bio-Rad Laboratories) and transferred to Hybond-C extra nitrocellulose. Membranes were blocked for 1 h with 5% nonfat dry milk in Tris-buffered saline containing 0.05% Tween 20, incubated overnight with primary antibody, washed and incubated with secondary antibody, and visualized by chemiluminescence.
(§4) The following primary antibodies were used: anti-PTEN, anti-c-Jun, anti-p-c-Jun, anti-Fos, anti-p-JNK, anti-MMP3, anti-Mc1-1 (Santa Cruz), anti-TIMP3 (Millipore) anti-PI3K (BD Biosciences), anti-ERKs, anti-phospho ERKs, anti-AKT, anti-p-AKT, anti-GSK3b, anti-p-GSK3b (Ser9), anti-PAK1 anti-caspase-8,-3 and -9, anti-PARP, anti-cytochrome c (Cell signaling) and anti-MMP9, anti-FADD (Abcam), anti-1-actin antibody (Sigma). A secondary anti-rabbit or anti-mouse immunoglobulin G (IgG) antibody peroxidase conjugate (Chemicon) was used.
(§5) 2′-O-me-GFP miR (5′-[…] [SEQ ID No:17]) was used as control. Cells were grown in six well plate (1.7×10^6 per well) for 24 h and transfected 100 nmoli/L/well of 2′-O-me-oligoribonucleotides using lipofectamine 2000. […]

PTEN and TIMP3 [4] = assay: Western blot of PTEN and TIMP3 in Snu-387 cells; conditions: Snu-387 cells after transfection
Protocol: as §3, §4, §5

Calu-1 cells [5] = assay: Migration and invasion assay in Calu-1 cells; conditions: Calu-1 cells after transfection
Protocol: (§6) Transwell insert chambers with […] porous membrane (Greiner bio-one) were used for the assay. Cells were washed three times with PBS and added to the top chamber in serum-free media. The bottom chamber was filled with media containing 10% FBS. Cells were incubated for 24 h at 37° C. in a 5% CO2 humidified incubator. To quantify migrating cells, cells on the top chamber were removed by using a cotton-tipped swab, and the migrated cells were fixed in PBS, 25% glutaraldehyde and stained with Crystal Violet stain, visualized under a phase-contrast microscope, and photographed. Cristal violet-stained cells were moreover solubilized in acetic acid and methanol (1:1) and absorbance was measured at 595 nm. The results are means of three independent experiments±S.D.
(§7) H460 and SK-Hep-1 cells were placed into the top chamber of a BD Falcon HTS FluoroBlok insert with a membrane containing […] pores (BD Biosciences) in […] of serum-free Dulbecco's modified Eagle medium in triplicate. […] The fluorescence of migrated cells was quantified using a fluorometer at excitation wavelengths of 485 nm and emission wavelengths of 530 nm and expressed as arbitrary fluorescence units. Data are expressed as mean±standard error of 4 separate determinations.

Snu-387 cells [6] = assay: Migration and invasion assay in Snu-387 cells; conditions: Snu-387 cells after transfection
Protocol: as §6, §7

AKT pathway = assay: Western blots of AKT pathway in Snu-387 cells; conditions: Snu-387 cells after knockdown
Protocol: as §3, §4, §5

miR-221 and miR-222 = assay: qRT-PCR of miR-221 and miR-222 in Huh7 cells after anisomycin; parameters: dose or concentration left out as unconfirmed
Protocol: Real-time PCR was performed using a standard TaqMan PCR Kit protocol on an Applied Biosystems 7900HT Sequence Detection System (Applied Biosystems). The 10 μl PCR reaction included 0.67 μl RT product, 1 μl TaqMan Universal PCR Master Mix (Applied Biosystems), […]. The reactions were incubated in a 96-well plate at 95° C. for […], followed by 40 cycles of 95° C. for 15 s and 60° C. for 1 min. All reactions were run in triplicate. The threshold cycle (CT) is defined as the fractional cycle number at which the fluorescence passes the fixed threshold. The comparative CT method for relative quantization of gene expression (Applied Biosystems) was used to determine miRNA expression levels. The y axis represents the 2(-CT), or the relative expression of the different miRs. miRs expression was calculated relative to U44 and U48 rRNA and multiplied by 104. Experiments were carried out in triplicate for each data point, and data analysis was performed by using software (Bio-Rad).

c-Jun, PTEN and TIMP3 = assay: Western blot in Huh7 cells after anisomycin
Protocol: as §3, §4

PTEN and TIMP3 3′ UTRs = assay: 3′UTR luciferase reporter assay in MEG01 cells; conditions: wild type 3′ UTRs
From the text: The 3′ UTR of the human PTEN and TIMP3 genes were PCR amplified using the following primers: PTEN Fw 5′-TCTAGAGACTCTGATCCAGAGAATGAACC-3′ [SEQ ID No:1] and PTEN Rw 5′-TCTAGAGTTGCCACAAGTGCAAAGGGGTAGGATGTG-3′ [SEQ ID No:2]; TIMP3 Fw 5′-TCTAGACTGGGCAAAGAAGGGTCTTTCGCAAAGC-3′ [SEQ ID No:3] and TIMP3 Rw 5′ TCTAGATTCCAATAGGGAGGAGGCTGGAGGAGTCTC-3′ [SEQ ID No:4] and cloned downstream of the […] luciferase stop codon in pGL3 control vector (Promega), giving rise to the p3′UTR-PTEN and p3′UTR-TIMP3 plasmids.
These constructs were used to generate, by inverse PCR, the p3′-UTRmut-PTEN plasmid-primers: Fw: 5′-GTTGAAAAAAGGTTGGGGGCGGGTGTCATGTATATAC-3 [SEQ ID No:5]; Rw: 5′-GTATATACATGACACCCGCCCCCAACCTTTTTTCAAC-3′[SEQ ID No:6]; p3′-UTRmut-TIMP3 plasmid-primers: Fw: 5′-GTATAATTTAAAATCATTGGGCGGCGGGAGACACTTCTGTATTTC-3′ [SEQ ID No:7]; Rw: 5′-GAAATACAGAAGTGTCTCCCGCCGCCCAATGATTTTAAATTATAC-3′ [SEQ ID No:8].
MeG01 cells were cotransfected with 1 μg of p3′UTR-PTEN or p3′UTR-TIMP3 and with p3′UTRmut-PTEN or p3′ UTR TIMP3 plasmids and 1 μg of a Renilla luciferase expression construct pRL-TK (Promega) by using Lipofectamine 2000 (Invitrogen). Cells were harvested 24 h post-transfection and assayed with Dual Luciferase Assay (Promega) according to the manufacturer's instructions. […]

PTEN and TIMP3 [7] = assay: Western blot of PTEN and TIMP3 in H460 cells; conditions: 72 h, compared to scrambled pre-miR
Protocol: as §3, §4

PTEN and TIMP3 mRNA = assay: qRT-PCR of PTEN and TIMP3 mRNA in H460 cells
PTEN and TIMP3 [8] = assay: Western blot of PTEN and TIMP3 in Sk-Hep1 cells; conditions: Sk-Hep1 cells upon over-expression
Protocol: as §3, §4

[9] = system: AKT/ERKs pathways and Metallopeptidases; assay: Western blots of AKT/ERKs pathways and metallopeptidases in H460 cells; conditions: H460 cells after forced expression
Protocol: as §3, §4

H460 cells [10] = assay: Flow cytometric cell cycle analysis of H460 cells; conditions: H460 transfected cells, 72 h
H460 cells [11] = assay: Migration and invasion assay in H460 cells; conditions: H460 cells after transfection
Protocol: as §6, §7

Sk-Hep1 cells = assay: Migration and invasion assay in Sk-Hep1 cells; conditions: Sk-Hep1 cells after transfection
Protocol: as §6, §7

Molecule	sensitivity to TRAIL-induced apoptosis (caspase 3/7 assay) (Calu-1 cells [1])	sensitivity to TRAIL-induced apoptosis (caspase 3/7 assay) (Snu-387 cells [2])	PTEN and TIMP3 protein levels (western blot) (PTEN and TIMP3 [3])	PTEN and TIMP3 protein level (western blot) (PTEN and TIMP3 [4])	cell migration and invasion (Calu-1 cells [5])	cell migration and invasion (Snu-387 cells [6])	AKT pathway (western blots) (AKT pathway)	other results
5′-gaaacccagcagacaauguagcu (antisense GAAACCCAGCAGACAAUGUAGCU; all 2'-O-methyl, backbone not given here) [2′-O-me-anti-miR-221]	considerably sensitized these cells to TRAIL-induced apoptosis	considerably sensitized these cells to TRAIL-induced apoptosis	increased the protein levels of PTEN and TIMP3	increased the protein level of PTEN and TIMP3	a decrease in cell migration and invasion	a decrease in cell migration and invasion	inhibition of the AKT pathway	–
5′-gagacccagtagccagatgtagct (antisense GAGACCCAGTAGCCAGATGTAGCT; all 2'-O-methyl, backbone and T or U not given here) [2′-O-me-anti-miR-222]	considerably sensitized these cells to TRAIL-induced apoptosis	considerably sensitized these cells to TRAIL-induced apoptosis	increased the protein levels of PTEN and TIMP3	increased the protein level of PTEN and TIMP3	a decrease in cell migration and invasion	a decrease in cell migration and invasion	inhibition of the AKT pathway	–
COc1ccc(C[C@H]2NC[C@H](O)[C@H]2OC(C)=O)cc1 [anisomycin]	–	–	–	–	–	–	–	miR-221 expression increase (qRT-PCR) (miR-221 and miR-222): 80%; miR-222 expression increase (qRT-PCR) (miR-221 and miR-222): 40%; PTEN and TIMP3 expression levels (c-Jun, PTEN and TIMP3; Huh7 cells after anisomycin): decreased drastically; c-Jun activation (c-Jun, PTEN and TIMP3; Huh7 cells, total lysate, western blot): induced c-Jun activation
miR-222: microRNA transfected (100 nM) for enforced expression (GAGACCCAGTAGCCAGATGTAGCT; listed as DNA, chemistry not given here)	–	–	–	–	–	–	–	relative luciferase activity of PTEN and TIMP3 3′ UTR reporter constructs (PTEN and TIMP3 3′ UTRs): significantly affected luciferase expression; endogenous levels of PTEN and TIMP3 (western blot) (PTEN and TIMP3 [7]): significantly reduced the endogenous levels of PTEN and TIMP3; down-regulation of TIMP3 mRNA (qRT-PCR) (PTEN and TIMP3 mRNA; H460 cells after enforced expression): not observed; PTEN mRNA levels (qRT-PCR) (PTEN and TIMP3 mRNA; H460 cells after forced expression): strongly reduced; PTEN and TIMP3 proteins (western blot) (PTEN and TIMP3 [8]): reduced; activation of AKT/ERKs pathways and metallopeptidases (western blots) [9]: induces the activation of the AKT/ERKs pathways and Metallopeptidases; cell cycle distribution (H460 cells [10]): a decrease of G1 and a corresponding increase of the S and G2-M phases; migratory and invasive capabilities (H460 cells [11]): significant increase; migratory and invasive capabilities (Sk-Hep1 cells): significant increase
